Measured values taken from PubChem BioAssay AID248 (DTP/NCI, 2004).
Several values for one entry are separate records, joined by “and”; a condition that tells them apart may be missing. Equal entries are not always repeated. Inconclusive results and toxic doses are left out. No stated cut-off is given here; in the data, active means T/C of 150% or more; inactive means T/C below 125%.

Test system: L1210 leukemia ip in BDF1 mice, survival T/C
Test: NCI In Vivo Anticancer Drug Screen. Data for tumor model L1210 Leukemia (intraperitoneal) in B6D2F1 (BDF1) mice
Conditions: endpoint: mean survival time, higher = longer survival
Method in brief: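 Tumor was transplanted into mice, which were then dosed with test compound or vehicle alone. Survival was recorded for each group, and the treated figure was expressed relative to the control figure.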

[1] = dose: 50.0 mg/kg/injection, schedule: Q01DX009 (ip), vehicle: saline
[2] = dose: 200.0 mg/kg/injection, schedule: Q01DX009 (ip), vehicle: saline
[3] = dose: 100.0 mg/kg/injection, schedule: Q01DX001 (ip), vehicle: Klucel (hydroxypropylcellulose) (HPC)
[4] = dose: 200.0 mg/kg/injection, schedule: Q01DX001 (ip), vehicle: Klucel (hydroxypropylcellulose) (HPC)
[5] = dose: 100.0 mg/kg/injection, schedule: Q01DX001 (ip), vehicle: carboxymethylcellulose (CMC)
[6] = dose: 200.0 mg/kg/injection, schedule: Q01DX001 (ip), vehicle: carboxymethylcellulose (CMC)
[7] = dose: 400.0 mg/kg/injection, schedule: Q01DX001 (ip), vehicle: carboxymethylcellulose (CMC)
[8] = dose: 100.0 mg/kg/injection, schedule: Q04DX003 (ip), vehicle: Klucel (hydroxypropylcellulose) (HPC)
[9] = dose: 200.0 mg/kg/injection, schedule: Q04DX003 (ip), vehicle: Klucel (hydroxypropylcellulose) (HPC)
[10] = dose: 400.0 mg/kg/injection, schedule: Q04DX003 (ip), vehicle: Klucel (hydroxypropylcellulose) (HPC)
[11] = dose: 50.0 mg/kg/injection, schedule: Q01DX001 (ip), vehicle: saline
[12] = dose: 100.0 mg/kg/injection, schedule: Q01DX001 (ip), vehicle: saline
[13] = dose: 200.0 mg/kg/injection, schedule: Q01DX001 (ip), vehicle: saline
[14] = dose: 400.0 mg/kg/injection, schedule: Q01DX001 (ip), vehicle: saline
[15] = dose: 100.0 mg/kg/injection, schedule: Q04DX003 (ip), vehicle: saline with Tween-80
[16] = dose: 200.0 mg/kg/injection, schedule: Q04DX003 (ip), vehicle: saline with Tween-80
[17] = dose: 400.0 mg/kg/injection, schedule: Q04DX003 (ip), vehicle: saline with Tween-80
[18] = dose: 100.0 mg/kg/injection, schedule: Q04DX003 (ip), vehicle: saline
[19] = dose: 200.0 mg/kg/injection, schedule: Q04DX003 (ip), vehicle: saline
[20] = dose: 400.0 mg/kg/injection, schedule: Q04DX003 (ip), vehicle: saline
[21] = dose: 100.0 mg/kg/injection, schedule: Q01DX009 (ip), vehicle: Klucel (hydroxypropylcellulose) (HPC)
[22] = dose: 200.0 mg/kg/injection, schedule: Q01DX009 (ip), vehicle: Klucel (hydroxypropylcellulose) (HPC)

Measured: T/C

CC1CN(c2ccc([N+](=O)[O-])cc2)C(C)CN1N=O (configuration not stated)
inactive: dose: 25.0 mg/kg/injection, schedule: Q01DX009 (ip), vehicle: saline 106 % of control | [1] 104 % of control | dose: 100.0 mg/kg/injection, schedule: Q01DX009 (ip), vehicle: saline 98 % of control | [2] 97 % of control | dose: 400.0 mg/kg/injection, schedule: Q01DX009 (ip), vehicle: saline 95 % of control

Cc1cccc(Cl)c1OCC(=O)Nc1ccc(Cl)cc1
inactive: dose: 100.0 mg/kg/injection, schedule: Q04DX002 (ip), vehicle: saline with Tween-80 90 % of control | dose: 200.0 mg/kg/injection, schedule: Q04DX002 (ip), vehicle: saline with Tween-80 93 % of control | dose: 400.0 mg/kg/injection, schedule: Q04DX002 (ip), vehicle: saline with Tween-80 93 % of control

O=C(Nc1ccc(NS(=O)(=O)c2ccccc2)cc1Cl)c1ccccc1
inactive: dose: 50.0 mg/kg/injection, schedule: Q01DX001 (ip), vehicle: Klucel (hydroxypropylcellulose) (HPC) 104 % of control | [3] 108 % of control | [4] 90 % of control

O=c1[nH]c(-c2ccccc2)nc(CN2CCCCC2)c1O
inactive: dose: 50.0 mg/kg/injection, schedule: Q01DX001 (ip), vehicle: carboxymethylcellulose (CMC) 101 % of control | [5] 101 % of control | [6] 98 % of control | [7] 95 % of control

COc1cccc2c1OC(COS(C)(=O)=O)CO2 (configuration not stated) (tested in a mixture with another compound)
inactive: [5] 95 % of control | [6] 95 % of control | [7] 97 % of control

CCOC(=O)C1C2OC(=O)C(C(=O)C2CN(CCCl)CCCl)C1c1ccc(OC(C)=O)cc1 (configuration not stated)
inactive: dose: 50.0 mg/kg/injection, schedule: Q04DX003 (ip), vehicle: Klucel (hydroxypropylcellulose) (HPC) 93 % of control | [8] 101 % of control | [9] 103 % of control | [10] 97 % of control

O=C(Nc1cccc2cccnc12)C(F)(F)F
inactive: [11] 91 % of control | [12] 104 % of control | [13] 91 % of control | [14] 93 % of control

N\C([S-])=N/N=C\C(=N/N=C(\N)[S-])C(O)C(O)C(O)CO.[Pt+2] (configuration not stated)
inactive: [1] 91 % of control | [15] 92 % of control | [2] 100 % of control | [16] 89 % of control | [17] 96 % of control

CC[N+](C)(C)CCCOC(=O)C1C2CC3CC(C2)CC1C3 (configuration not stated)
inactive: dose: 25.0 mg/kg/injection, schedule: Q04DX002 (ip), vehicle: saline 88 % of control | dose: 50.0 mg/kg/injection, schedule: Q04DX002 (ip), vehicle: saline 98 % of control

O=[N+]([O-])CC(NNC(C[N+](=O)[O-])C(Cl)(Cl)Cl)C(Cl)(Cl)Cl (configuration not stated)
inactive: dose: 100.0 mg/kg/injection, schedule: Q01DX009 (ip), vehicle: saline with Tween-80 96 % of control | [15] 89 % of control | dose: 200.0 mg/kg/injection, schedule: Q01DX009 (ip), vehicle: saline with Tween-80 91 % of control | [16] 94 % of control | [17] 90 % of control

O=C(CCCCC(=O)N(CCO)CCO)N(CCO)CCO
inactive: [18] 102 % of control | [19] 100 % of control | [20] 102 % of control

CC(C)=CCc1cc(OC(=O)OCc2ccccc2)c2ccccc2c1O
inactive: [3] 96 % of control | [4] 93 % of control | dose: 400.0 mg/kg/injection, schedule: Q01DX001 (ip), vehicle: Klucel (hydroxypropylcellulose) (HPC) 101 % of control

CCC(=O)c1ccc(O)c(C)c1
inactive: dose: 55.5 mg/kg/injection, schedule: Q01DX Z (ip), vehicle: methylcellulose (MC) 98 % of control | dose: 83.3 mg/kg/injection, schedule: Q01DX Z (ip), vehicle: methylcellulose (MC) 96 % of control | dose: 125.0 mg/kg/injection, schedule: Q01DX Z (ip), vehicle: methylcellulose (MC) 102 % of control | dose: 187.5 mg/kg/injection, schedule: Q01DX Z (ip), vehicle: methylcellulose (MC) 103 % of control

O=C(O)CCCOc1ccc(Cl)cc1
inactive: dose: 100.0 mg/kg/injection, schedule: Q04DX002 (ip), vehicle: Klucel (hydroxypropylcellulose) (HPC) 96 % of control | dose: 200.0 mg/kg/injection, schedule: Q04DX002 (ip), vehicle: Klucel (hydroxypropylcellulose) (HPC) 101 % of control | dose: 400.0 mg/kg/injection, schedule: Q04DX002 (ip), vehicle: Klucel (hydroxypropylcellulose) (HPC) 104 % of control

COc1ccccc1CN1CCCN(Cc2ccccc2OC)C1c1cccc(OC)c1O
inactive: [11] 95 % of control | [12] 101 % of control | [13] 93 % of control | [14] 93 % of control

CCc1ccccc1NC(=O)Nc1ccc(S(N)(=O)=O)cc1
inactive: [21] 98 % of control | [22] 97 % of control | dose: 400.0 mg/kg/injection, schedule: Q01DX009 (ip), vehicle: Klucel (hydroxypropylcellulose) (HPC) 103 % of control

O=C(NC1CCCCC1)c1ccccc1
inactive: [8] 100 % of control | [9] 93 % of control | [10] 96 % of control

CC1(c2ccc(Cl)cc2)NC(=O)N(CC(=O)Nc2ccccc2)C1=O (configuration not stated)
inactive: dose: 100.0 mg/kg/injection, schedule: Q04DX003 (ip), vehicle: acetone 101 % of control | dose: 200.0 mg/kg/injection, schedule: Q04DX003 (ip), vehicle: acetone 90 % of control | dose: 400.0 mg/kg/injection, schedule: Q04DX003 (ip), vehicle: acetone 93 % of control

CN(C)S(=O)(=O)c1ccc(CC(=O)c2ccccc2)cc1
inactive: [5] 115 % of control | [6] 98 % of control | [7] 96 % of control

CC1CCC(C(=O)O)(C(=O)NC(N)=O)CC1C (configuration not stated)
inactive: dose: 100.0 mg/kg/injection, schedule: Q01DX001 (ip), vehicle: steriod suspending solution 93 % of control | dose: 200.0 mg/kg/injection, schedule: Q01DX001 (ip), vehicle: steriod suspending solution 110 % of control | dose: 400.0 mg/kg/injection, schedule: Q01DX001 (ip), vehicle: steriod suspending solution 114 % of control

Cc1ccc(S(=O)(=O)Nc2c(C)c(Cl)c(C)c3ccccc23)cc1
inactive: [15] 94 % of control | [16] 87 % of control | [17] 89 % of control

O=c1[nH]nc(CCc2ccccc2)o1
inactive: [12] 97 % of control | [18] 98 % of control | [13] 92 % of control | [19] 93 % of control | [14] 95 % of control | [20] 113 % of control

O=C(Nc1cccc(Cl)c1)OCCOCCOC(=O)Nc1cccc(Cl)c1
inactive: [8] 93 % of control and 104 % of control | [9] 101 % of control and 106 % of control | [10] 97 % of control and 98 % of control

CCCCNC(=O)OC
inactive: dose: 50.0 mg/kg/injection, schedule: Q01DX009 (ip), vehicle: Klucel (hydroxypropylcellulose) (HPC) 94 % of control | [21] 97 % of control | [8] 98 % of control | [22] 102 % of control | [9] 91 % of control
